According to paper PMC9889269, “Synthetic anaplerotic modules for the direct synthesis of complex molecules from CO2” (Nature Chemical Biology, 2022):

Biological target: T1, Aat (acetyl-CoA acetyltransferase) (Cupriavidus necator, UniProt P14611)
T1 construct: gene phaA; recombinant from E. coli BL21(DE3), Ni-NTA purified, desalted
T1 sequence (P14611 1-393): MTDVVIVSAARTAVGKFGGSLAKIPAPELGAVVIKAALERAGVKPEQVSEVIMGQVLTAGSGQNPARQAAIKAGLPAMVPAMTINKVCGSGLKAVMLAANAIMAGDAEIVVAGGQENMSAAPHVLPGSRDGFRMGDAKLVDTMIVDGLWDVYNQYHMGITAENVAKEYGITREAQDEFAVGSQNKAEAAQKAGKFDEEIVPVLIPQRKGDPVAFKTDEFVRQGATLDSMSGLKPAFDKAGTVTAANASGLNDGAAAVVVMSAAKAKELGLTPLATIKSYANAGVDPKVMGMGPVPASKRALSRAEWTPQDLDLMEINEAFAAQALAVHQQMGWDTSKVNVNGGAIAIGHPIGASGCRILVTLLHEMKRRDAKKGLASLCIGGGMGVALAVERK
Experiment: LC-MS of condensation products, with Aar and Bbd
Type: biochemical
Conditions: acetyl-CoA and propionyl-CoA together

Compound | LC-MS of condensation products, with Aar and Bbd | LC-MS of condensation products, with Aar and Bbd (condensed with acetyl-CoA, not with itself)
CC(=O)SCCNC(=O)CCNC(=O)[C@H](O)C(C)(C)COP(=O)(O)OP(=O)(O)OC[C@H]1O[C@@H](n2cnc3c(N)ncnc32)[C@H](O)[C@@H]1OP(=O)(O)O [acetyl-CoA] | Promiscuity of Aat assayed with acetyl-CoA and propionyl-CoA | –
CCC(=O)SCCNC(=O)CCNC(=O)[C@H](O)C(C)(C)COP(=O)(O)OP(=O)(O)OC[C@H]1O[C@@H](n2cnc3c(N)ncnc32)[C@H](O)[C@@H]1OP(=O)(O)O [propionyl-CoA] | – | All products for acetyl- and propionyl-CoA combinations were detectable
